From the OligoGym collection
After the bases stand the sugars from the 5' end (letter, count) and the backbone: PS all phosphorothioate, else s phosphorothioate and o phosphodiester by linkage. Methylation of C is not given here. e = 2'-O-(2-methoxyethyl) (MOE); k = constrained ethyl (cEt); d = 2'-deoxy (DNA); m = 2'-O-methyl

Target: HSD17B13
Details: ASO, HepaRG

Sequence | target mRNA inhibition (1 µM) | further results
GTGTTCTTGTTGATAT (sugars k3 d10 k3, PS) | 81% | target mRNA inhibition (0.02 µM): 13%; target mRNA inhibition (0.078 µM): 25%; target mRNA inhibition (0.313 µM): 59%; target mRNA inhibition (1.25 µM): 80%; target mRNA inhibition (5 µM): 93%
GTGTTCTTGTTGATAT (sugars kkdddddddddkekek, PS) | 63% | –
GTTAAGCAGATGGCTT (sugars k3 d10 k3, PS) | 41% | –
GTTACCAGAGCATTCA (sugars k3 d10 k3, PS) | 73% | target mRNA inhibition (0.02 µM): 19%; target mRNA inhibition (0.078 µM): 36%; target mRNA inhibition (0.313 µM): 63%; target mRNA inhibition (1.25 µM): 74%; target mRNA inhibition (5 µM): 92%
GTTAGCAGCTAAAATC (sugars k3 d10 k3, PS) | 45% | –
GTTAGCTAAGGGAGAG (sugars k3 d10 k3, PS) | 18% | –
GTTATAAGTTTCATGT (sugars k3 d10 k3, PS) | 21% | –
GTTATTCTCTTGACAA (sugars k3 d9 k3 e1, PS) | 35% | –
GTTCAAATTGGATGCA (sugars k3 d10 k3, PS) | 68% | –
GTTCATTCGAATTTCT (sugars k3 d10 k3, PS) | 76% | target mRNA inhibition (0.02 µM): 0%; target mRNA inhibition (0.078 µM): 19%; target mRNA inhibition (0.313 µM): 60%; target mRNA inhibition (1.25 µM): 87%; target mRNA inhibition (5 µM): 88%
GTTCTTAATTACATTC (sugars k3 d10 k3, PS) | 64% | –
GTTGACTAATGCAAGA (sugars k3 d10 k3, PS) | 59% | –
GTTGATAAAATAGGGT (sugars k3 d10 k3, PS) | 42% | –
GTTGATATTCTGTGGC (sugars k3 d1 m1 d8 k3, PS) | 68% | –
GTTGATATTCTGTGGC (sugars kkdddddddddkekek, PS) | 69% | –
GTTGATATTTCCATCT (sugars k3 d10 k3, PS) | 55% | –
GTTGGAAGATGTATAC (sugars k3 d10 k3, PS) | 53% | –
GTTTAGATTGCATAAG (sugars k3 d10 k3, PS) | 46% | –
GTTTATCATGTGCCAC (sugars k3 d10 k3, PS) | 83% | target mRNA inhibition (0.02 µM): 0%; target mRNA inhibition (0.078 µM): 21%; target mRNA inhibition (0.313 µM): 44%; target mRNA inhibition (1.25 µM): 76%; target mRNA inhibition (5 µM): 94%
GTTTATGTAAGCACAG (sugars k3 d10 k3, PS) | 67% | –
GTTTCAAAAAGGCCCA (sugars k3 d10 k3, PS) | 39% | –
GTTTCTTATGTAATAG (sugars k3 d1 m1 d8 k3, PS) | 25% | –

Sequence | target mRNA inhibition (1 µM) | further results
GTTTTTAAGAGGCATG (sugars k3 d9 k3 e1, PS) | 78% | target mRNA inhibition (0.02 µM): 12%; target mRNA inhibition (0.078 µM): 17%; target mRNA inhibition (0.313 µM): 41%; target mRNA inhibition (1.25 µM): 64%; target mRNA inhibition (5 µM): 82%
GTTTTTATTGGGCCCA (sugars k3 d10 k3, PS) | 67% | –
TAAAATAGGGTGCAGT (sugars k3 d10 k3, PS) | 58% | –
TAAAATATGTCCAGGT (sugars k3 d10 k3, PS) | 75% | –
TAAACATCTCTGGGAC (sugars kkdddddddddkekek, PS) | 39% | –
TAAACTGTATGCCTCT (sugars k3 d10 k3, PS) | 49% | –
TAAATCCAAATCACTC (sugars k3 d10 k3, PS) | 39% | –
TAACCATAGGACATGG (sugars k3 d10 k3, PS) | 70% | –
TAACGGTGATCAAATG (sugars k3 d10 k3, PS) | 17% | –
TAACTAACCTGACACA (sugars k3 d10 k3, PS) | 57% | –
TAACTTCATAGTGGAC (sugars k3 d10 k3, PS) | 76% | –
TAAGAGAAGGTGCACA (sugars k3 d10 k3, PS) | 12% | –
TAAGAGATGAGTAGGC (sugars k3 d10 k3, PS) | 46% | –
TAAGAGGCATGAAAGG (sugars k3 d9 k3 e1, PS) | 36% | –
TAAGAGGCATGAAAGG (sugars k3 d10 k3, PS) | 52% | –
TAAGATACCCAGGTTG (sugars k3 d10 k3, PS) | 39% | –
TAAGCTGAGAGTTCTA (sugars k3 d10 k3, PS) | 64% | –
TAAGGTAAACTAAAGT (sugars k3 d10 k3, PS) | 9% | –
TAAGTAGATGGTAAGT (sugars k3 d10 k3, PS) | 74% | target mRNA inhibition (0.02 µM): 5%; target mRNA inhibition (0.078 µM): 10%; target mRNA inhibition (0.313 µM): 34%; target mRNA inhibition (1.25 µM): 72%; target mRNA inhibition (5 µM): 85%
TAAGTTATTATCCCCA (sugars k3 d10 k3, PS) | 70% | –
TAATACGACTTCCTTC (sugars k3 d10 k3, PS) | 32% | –
TAATAGCCAGTACAGT (sugars k3 d9 k3 e1, PS) | 64% | –
